Assay results: PMC2804269 (Bioconjugate chemistry, 2009)
Bridge positions count the residues as written; N and C are the ends. Peptide text beside a SMILES is read from it. * marks the point of attachment. Benzoyl(4-F) = O=C(c1ccc(F)cc1)*

Columns and labels:
[1] = test system: U87MG tumor bearing mice; assay: Static microPET imaging quantification; format: in vivo, mouse; settings: quantification of microPET images
[2] = test system: U87MG tumor bearing mice; assay: Biodistribution in nude mice bearing U87MG xenografts; format: in vivo, mouse; settings: 330 μg c(RGDyK), 0.5 h p.i., P < 0.05
[3] = as above; format: in vivo, mouse; settings: nude, mouse, iv, 740 KBq (20 uCi), total radioactivity, 0.5 h p.i., n = 3
[4] = test system: U87MG tumor bearing mice; assay: Dynamic microPET scan of U87MG tumor-bearing mouse; format: in vivo; settings: 35 min p.i., ROI analysis of the heart
[5] = target: integrin αvβ3 (Homo sapiens) (UniProt P06756); settings: cited from earlier work
Sequence of UniProt P06756 (P06756 31-1048, chain 1 of 2): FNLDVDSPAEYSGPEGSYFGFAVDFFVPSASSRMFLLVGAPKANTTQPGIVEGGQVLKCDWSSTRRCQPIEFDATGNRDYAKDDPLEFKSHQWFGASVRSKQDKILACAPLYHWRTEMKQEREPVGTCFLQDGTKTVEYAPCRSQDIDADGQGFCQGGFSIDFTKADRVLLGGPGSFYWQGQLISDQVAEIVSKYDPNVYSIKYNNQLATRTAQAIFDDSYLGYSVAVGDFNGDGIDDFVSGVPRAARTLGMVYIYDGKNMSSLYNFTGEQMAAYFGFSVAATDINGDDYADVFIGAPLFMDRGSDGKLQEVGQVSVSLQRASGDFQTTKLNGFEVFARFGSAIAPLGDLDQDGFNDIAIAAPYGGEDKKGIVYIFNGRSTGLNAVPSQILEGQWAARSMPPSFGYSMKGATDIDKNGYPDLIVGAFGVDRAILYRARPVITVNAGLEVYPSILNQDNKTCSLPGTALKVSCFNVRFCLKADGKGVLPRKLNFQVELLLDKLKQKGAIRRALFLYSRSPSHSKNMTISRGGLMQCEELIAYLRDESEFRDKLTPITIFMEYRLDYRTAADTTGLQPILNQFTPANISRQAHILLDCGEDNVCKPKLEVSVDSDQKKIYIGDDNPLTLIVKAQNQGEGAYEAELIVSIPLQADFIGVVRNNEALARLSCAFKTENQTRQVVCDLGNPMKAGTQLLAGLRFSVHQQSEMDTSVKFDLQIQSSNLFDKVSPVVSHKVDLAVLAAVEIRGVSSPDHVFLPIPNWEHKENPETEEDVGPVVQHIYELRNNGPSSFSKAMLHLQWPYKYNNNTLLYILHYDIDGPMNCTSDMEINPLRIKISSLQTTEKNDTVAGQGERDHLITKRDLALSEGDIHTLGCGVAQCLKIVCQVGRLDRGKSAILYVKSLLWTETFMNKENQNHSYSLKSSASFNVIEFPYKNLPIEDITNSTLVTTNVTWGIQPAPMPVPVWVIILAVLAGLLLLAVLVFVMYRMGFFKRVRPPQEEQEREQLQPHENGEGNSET
Sequence of UniProt P06756 (P05106 27-788, chain 2 of 2, further chain): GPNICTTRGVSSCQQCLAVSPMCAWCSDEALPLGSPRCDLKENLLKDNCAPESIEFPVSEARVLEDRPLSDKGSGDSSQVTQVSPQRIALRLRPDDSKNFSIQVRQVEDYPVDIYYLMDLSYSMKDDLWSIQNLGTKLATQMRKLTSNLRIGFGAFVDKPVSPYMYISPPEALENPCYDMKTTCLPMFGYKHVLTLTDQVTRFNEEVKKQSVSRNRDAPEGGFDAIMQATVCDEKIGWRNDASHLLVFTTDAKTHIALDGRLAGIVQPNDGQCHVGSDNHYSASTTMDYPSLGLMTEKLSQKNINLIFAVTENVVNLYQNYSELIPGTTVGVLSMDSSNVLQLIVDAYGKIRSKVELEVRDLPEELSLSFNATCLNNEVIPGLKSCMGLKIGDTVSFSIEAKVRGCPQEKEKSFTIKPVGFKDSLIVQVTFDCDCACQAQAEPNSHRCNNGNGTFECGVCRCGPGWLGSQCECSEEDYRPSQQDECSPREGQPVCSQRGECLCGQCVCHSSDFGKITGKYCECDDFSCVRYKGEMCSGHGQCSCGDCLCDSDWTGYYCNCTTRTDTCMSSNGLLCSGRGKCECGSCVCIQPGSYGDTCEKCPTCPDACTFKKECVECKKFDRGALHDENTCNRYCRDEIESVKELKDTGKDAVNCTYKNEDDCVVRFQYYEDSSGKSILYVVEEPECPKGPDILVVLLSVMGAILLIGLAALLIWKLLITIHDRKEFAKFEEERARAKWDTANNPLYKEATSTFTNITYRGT

[6] = target: αvβ3 integrin; settings: binding to αvβ3 integrin; cited from earlier work

For `CC(C)C[C@@H]1NC(=O)[C@@H]2CSSC[C@@H](C(=O)NCC(N)=O)NC(=O)[C@H](Cc3ccccc3)NC(=O)CNC(=O)[C@H](CC(N)=O)NC(=O)[C@@H]3CCCN3C(=O)CNC(=O)[C@@H]3CSSC[C@H](NC(=O)[C@H](CO)NC(=O)[C@H]([C@@H](C)O)NC(=O)[C@@H]4CCCN4C(=O)[C@H](C)NC(=O)[C@H](Cc4c[nH]c5ccccc45)NC(=O)[C@H](CC(=O)O)NC(=O)CNC(=O)[C@H](CCCNC(=N)N)NC(=O)CNC(=O)[C@H](CCC(N)=O)NC(=O)[C@@H]4CCCN4C(=O)[C@@H](NC(=O)CNC(=O)c4ccc(F)cc4)CSSC[C@H](NC(=O)CNC(=O)[C@H](C)NC1=O)C(=O)N[C@@H](C(C)C)C(=O)N3)C(=O)N[C@@H](CO)C(=O)N[C@@H](CCC(N)=O)C(=O)N[C@@H](CC(=O)O)C(=O)N[C@@H](CO)C(=O)N[C@@H](CC(=O)O)C(=O)N2` [^18F-FB-2.5D] ({Benzoyl(4-F)}-GCPQGRGDWAPTSCSQDSDCLAGCVCGPNGFCG-NH2; disulfide 2-24, 14-26, 20-32; C-terminus assumed), the “activity remaining in tumor at 1 h p.i. compared to 0.5 h” value [1] was 56%, the “inhibition of tumor uptake by co-injection of c(RGDyK)” value [2] was 70% and the tissue uptake at 0.5 h ([3]; blood, blood radioactivity (biodistribution)) was 1.32 ± 0.07 %ID/g. The tissue uptake at 0.5 h ([3]; kidney, kidney uptake (biodistribution)) was 4.24 ± 0.19 %ID/g, the tissue uptake at 0.5 h ([3]; liver, liver uptake (biodistribution)) was 1.38 ± 0.55 %ID/g and the “radioactivity in blood relative to amount at 3 min p.i.” value [4] was “approximately 9.2%”.

In the case of Echistatin (from UniProt P17347), the Kd [5] is given as 0.3 nM.

In the case of echistatin, the Kd [6] is given as roughly 0.3 nM.
